According to ChEMBL document CHEMBL1142681, “Three-dimensional structure-activity relationships of nonsteroidal ligands in complex with androgen receptor ligand-binding domain” (J Med Chem, 2005):

Molecular target: T1, Androgen receptor (Rattus norvegicus, UniProt P15207)
T1 sequence (P15207 whole entry): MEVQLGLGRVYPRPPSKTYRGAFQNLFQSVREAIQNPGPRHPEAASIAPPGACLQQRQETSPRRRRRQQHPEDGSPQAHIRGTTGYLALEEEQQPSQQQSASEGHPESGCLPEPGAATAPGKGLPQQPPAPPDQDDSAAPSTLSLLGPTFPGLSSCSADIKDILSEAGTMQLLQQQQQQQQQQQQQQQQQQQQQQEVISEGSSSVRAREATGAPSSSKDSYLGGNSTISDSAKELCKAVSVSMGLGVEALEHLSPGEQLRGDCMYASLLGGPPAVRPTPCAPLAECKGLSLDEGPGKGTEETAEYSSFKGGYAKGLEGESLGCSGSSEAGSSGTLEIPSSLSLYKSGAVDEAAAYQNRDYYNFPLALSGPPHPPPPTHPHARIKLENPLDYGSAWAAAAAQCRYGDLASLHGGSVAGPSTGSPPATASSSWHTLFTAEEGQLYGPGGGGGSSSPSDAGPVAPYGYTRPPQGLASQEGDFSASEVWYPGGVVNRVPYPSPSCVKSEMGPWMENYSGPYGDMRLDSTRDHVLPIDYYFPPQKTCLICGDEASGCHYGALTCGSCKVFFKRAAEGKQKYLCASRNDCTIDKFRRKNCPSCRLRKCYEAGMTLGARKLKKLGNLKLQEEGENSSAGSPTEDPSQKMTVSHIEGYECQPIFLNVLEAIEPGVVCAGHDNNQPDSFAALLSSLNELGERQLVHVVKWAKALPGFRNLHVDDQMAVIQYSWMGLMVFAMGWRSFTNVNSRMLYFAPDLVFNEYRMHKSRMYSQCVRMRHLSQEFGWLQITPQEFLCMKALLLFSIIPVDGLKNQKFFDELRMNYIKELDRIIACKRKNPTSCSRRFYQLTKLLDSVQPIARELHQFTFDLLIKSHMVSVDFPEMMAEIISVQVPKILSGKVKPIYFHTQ
Description: Inhibition of [3H]mibolerone binding to cytosolic androgen receptor of rat ventral prostate

Row | SMILES | Ki [nM]
1 | CCC(=O)N(C(=O)CC)c1ccc(SC[C@](C)(O)C(=O)Nc2ccc(C#N)c(C(F)(F)F)c2)cc1 | 661
2 | C[C@](O)(CSc1ccc(NC(=O)CCl)cc1)C(=O)Nc1ccc([N+](=O)[O-])c(C(F)(F)F)c1 | 3.31
3 | CC(=O)Nc1ccc(S(=O)(=O)C[C@](C)(O)C(=O)Nc2ccc(C#N)c(C(F)(F)F)c2)cc1 | 15.8
4 | CC(=O)Nc1ccc(SC[C@@](C)(O)C(=O)Nc2ccc(C#N)c(C(F)(F)F)c2)cc1 | 1380
5 | C[C@](O)(CSc1ccc(N)cc1)C(=O)Nc1ccc([N+](=O)[O-])c(C(F)(F)F)c1 | 57.5
6 | C[C@](O)(CS(=O)(=O)c1ccc(NC(=O)CCl)cc1)C(=O)Nc1ccc([N+](=O)[O-])c(C(F)(F)F)c1 | 6.92
7 | C[C@@](O)(CSc1ccc(NC(=O)CCl)cc1)C(=O)Nc1ccc([N+](=O)[O-])c(C(F)(F)F)c1 | 97.7
8 | C[C@@](O)(CS(=O)(=O)c1ccc(NC(=O)CCl)cc1)C(=O)Nc1ccc([N+](=O)[O-])c(C(F)(F)F)c1 | 234
9 | C[C@](O)(CSc1ccc(NS(C)(=O)=O)cc1)C(=O)Nc1ccc([N+](=O)[O-])c(C(F)(F)F)c1 | 50.1
10 | C[C@](O)(CSc1ccc(NC(=O)C(F)(F)F)cc1)C(=O)Nc1ccc([N+](=O)[O-])c(C(F)(F)F)c1 | 2.57
11 | CC(=O)Nc1ccc(SC[C@@](C)(O)C(=O)Nc2ccc([N+](=O)[O-])c(C(F)(F)F)c2)cc1 | 123
12 | C[C@](O)(CBr)C(=O)Nc1ccc([N+](=O)[O-])cc1 | 33.1
13 | C[C@](O)(CSc1ccc(N=C=S)cc1)C(=O)Nc1ccc2c(C(F)(F)F)cc(=O)oc2c1 | 135
14 | C[C@@](O)(CBr)C(=O)Nc1ccc2c(C(F)(F)F)cc(=O)oc2c1 | 245
15 | C[C@](O)(CSc1ccccc1)C(=O)Nc1ccc2c(C(F)(F)F)cc(=O)oc2c1 | 132
16 | C[C@](O)(CSc1ccc(N)cc1)C(=O)Nc1ccc2c(C(F)(F)F)cc(=O)oc2c1 | 288
17 | CC(=O)Nc1ccc(SC[C@](C)(O)C(=O)Nc2ccc([N+](=O)[O-])c(C(F)(F)F)c2)cc1 | 2.88
18 | CC(=O)N(C(C)=O)c1ccc(SC[C@](C)(O)C(=O)Nc2ccc(C#N)c(C(F)(F)F)c2)cc1 | 105
19 | C[C@](O)(CS(=O)(=O)c1ccc(NS(C)(=O)=O)cc1)C(=O)Nc1ccc([N+](=O)[O-])c(C(F)(F)F)c1 | 15.1
20 | C[C@](O)(CBr)C(=O)Nc1ccc([N+](=O)[O-])cc1[N+](=O)[O-] | 1170
21 | C[C@](O)(CS(=O)(=O)c1ccc(N)cc1)C(=O)Nc1ccc(C#N)c(C(F)(F)F)c1 | 32.4
22 | C[C@](O)(CBr)C(=O)Nc1ccc2c(C(F)(F)F)cc(=O)oc2c1 | 132
23 | CCC(=O)Nc1ccc(SC[C@](C)(O)C(=O)Nc2ccc(C#N)c(C(F)(F)F)c2)cc1 | 26.9
24 | Cc1cc(=O)oc2cc(NC(=O)[C@@](C)(O)CSc3ccc(F)cc3)ccc12 | 91.2
25 | C[C@@](O)(CSc1ccc(N)cc1)C(=O)Nc1ccc([N+](=O)[O-])c(C(F)(F)F)c1 | 525
26 | C[C@](O)(CS(=O)(=O)c1ccc(NC(=O)C(F)(F)F)cc1)C(=O)Nc1ccc([N+](=O)[O-])c(C(F)(F)F)c1 | 6.17
27 | CC(=O)Nc1ccc(S(=O)(=O)C[C@@](C)(O)C(=O)Nc2ccc([N+](=O)[O-])c(C(F)(F)F)c2)cc1 | 589
28 | C[C@](O)(CBr)C(=O)Nc1ccc(N)c(C(F)(F)F)c1 | 81.3
29 | CC(=O)Nc1ccc(SC[C@](C)(O)C(=O)Nc2ccc(C#N)c(C(F)(F)F)c2)cc1 [ACETOTHIOLUTAMIDE] | 4.9
